Assay type in all cases: cell-based
Test [1] has as its target T1, human TLR8 (Homo sapiens, UniProt Q9NR97).
T1 construct: host or cells: HEK-Blue cells (HEK293-derived reporter line)
T1 sequence (Q9NR97 27-1041): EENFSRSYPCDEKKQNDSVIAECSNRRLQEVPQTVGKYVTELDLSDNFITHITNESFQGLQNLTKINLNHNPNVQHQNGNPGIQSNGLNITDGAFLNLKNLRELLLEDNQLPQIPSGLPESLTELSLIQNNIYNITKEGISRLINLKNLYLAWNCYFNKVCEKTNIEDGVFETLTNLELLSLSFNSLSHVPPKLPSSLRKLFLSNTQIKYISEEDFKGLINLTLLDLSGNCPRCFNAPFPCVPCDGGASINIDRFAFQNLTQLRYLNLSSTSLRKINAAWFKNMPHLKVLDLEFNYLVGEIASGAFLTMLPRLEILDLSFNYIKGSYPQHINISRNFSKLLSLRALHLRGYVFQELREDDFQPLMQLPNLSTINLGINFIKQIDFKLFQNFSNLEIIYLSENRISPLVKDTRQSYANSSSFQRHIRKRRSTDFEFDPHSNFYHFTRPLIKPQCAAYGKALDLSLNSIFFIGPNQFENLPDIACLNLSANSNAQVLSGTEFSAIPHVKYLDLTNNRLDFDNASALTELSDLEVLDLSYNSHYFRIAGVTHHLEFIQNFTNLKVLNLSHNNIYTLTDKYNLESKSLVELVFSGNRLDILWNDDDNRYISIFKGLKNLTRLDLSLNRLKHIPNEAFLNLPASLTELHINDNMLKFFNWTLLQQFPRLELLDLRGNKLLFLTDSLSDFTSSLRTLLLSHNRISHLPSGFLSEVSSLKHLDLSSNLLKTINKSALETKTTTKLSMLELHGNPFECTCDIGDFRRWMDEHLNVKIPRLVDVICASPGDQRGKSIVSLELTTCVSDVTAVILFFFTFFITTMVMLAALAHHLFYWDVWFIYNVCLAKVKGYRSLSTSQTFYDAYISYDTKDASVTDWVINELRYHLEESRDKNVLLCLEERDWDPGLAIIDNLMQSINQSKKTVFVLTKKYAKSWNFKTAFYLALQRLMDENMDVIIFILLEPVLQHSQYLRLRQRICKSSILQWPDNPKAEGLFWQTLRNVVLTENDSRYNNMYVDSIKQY
Put plainly: TLR8 inhibition reporter assay (HEK-Blue cells, SEAP reporter, R848 stimulation). Conditions: HEK-Blue cells overexpressing human TLR8, SEAP reporter, R848 15.9 μM. An outline of the steps:
(§1)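 HEK-Blue cells overexpressing human TLR7, TLR8 or TLR9 (NF-κB/AP-1-driven SEAP) pre-treated 30 min at room temperature with compound (0.05 nM–50 μM), then stimulated with gardiquimod 7.5 μM (TLR7), R848 15.9 μM (TLR8) or ODN2006 5 nM (TLR9). SEAP read colorimetrically after 22 h at 37 °C; % inhibition calculated.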

For test [2], the target named is T2, human TLR9 (Homo sapiens, UniProt Q9NR96).
T2 construct: host or cells: HEK-Blue cells (HEK293-derived reporter line)
T2 sequence (Q9NR96 26-1032): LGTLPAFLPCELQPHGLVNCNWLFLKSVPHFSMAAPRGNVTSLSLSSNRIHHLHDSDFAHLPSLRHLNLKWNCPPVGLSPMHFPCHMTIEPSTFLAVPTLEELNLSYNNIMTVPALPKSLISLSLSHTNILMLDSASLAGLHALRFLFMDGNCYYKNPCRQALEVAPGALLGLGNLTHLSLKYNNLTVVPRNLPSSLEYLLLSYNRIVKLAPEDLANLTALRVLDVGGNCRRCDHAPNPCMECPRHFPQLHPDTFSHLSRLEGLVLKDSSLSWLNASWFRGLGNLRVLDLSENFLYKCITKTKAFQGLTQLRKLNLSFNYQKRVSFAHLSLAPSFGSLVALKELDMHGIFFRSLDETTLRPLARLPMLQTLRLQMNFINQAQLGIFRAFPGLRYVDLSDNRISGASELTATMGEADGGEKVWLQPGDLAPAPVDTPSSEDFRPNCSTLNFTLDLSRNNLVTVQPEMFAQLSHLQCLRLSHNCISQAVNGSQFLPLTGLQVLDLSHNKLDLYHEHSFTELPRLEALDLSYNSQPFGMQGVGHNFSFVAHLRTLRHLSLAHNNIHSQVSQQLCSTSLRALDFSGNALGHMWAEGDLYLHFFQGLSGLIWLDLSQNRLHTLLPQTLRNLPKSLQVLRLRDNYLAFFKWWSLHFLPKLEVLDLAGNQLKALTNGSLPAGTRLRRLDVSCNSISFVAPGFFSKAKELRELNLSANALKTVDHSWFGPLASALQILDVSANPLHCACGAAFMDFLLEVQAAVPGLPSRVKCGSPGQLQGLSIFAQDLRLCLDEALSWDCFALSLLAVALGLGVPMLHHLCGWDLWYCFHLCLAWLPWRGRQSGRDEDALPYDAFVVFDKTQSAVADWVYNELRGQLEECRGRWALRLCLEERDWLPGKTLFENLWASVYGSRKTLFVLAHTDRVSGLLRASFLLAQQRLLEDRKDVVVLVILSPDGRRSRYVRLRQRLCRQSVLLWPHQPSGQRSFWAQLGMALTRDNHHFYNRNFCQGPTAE
The test is described as follows: TLR9 inhibition reporter assay (HEK-Blue cells, SEAP reporter, ODN2006 stimulation). Conditions: HEK-Blue cells overexpressing human TLR9, SEAP reporter, ODN2006 5 nM. An outline of the steps: as §1

Test [3] has as its target T3, human TLR7 (Homo sapiens, UniProt Q9NYK1).
T3 construct: host or cells: HEK-Blue cells (HEK293-derived reporter line)
T3 sequence (Q9NYK1 27-1049): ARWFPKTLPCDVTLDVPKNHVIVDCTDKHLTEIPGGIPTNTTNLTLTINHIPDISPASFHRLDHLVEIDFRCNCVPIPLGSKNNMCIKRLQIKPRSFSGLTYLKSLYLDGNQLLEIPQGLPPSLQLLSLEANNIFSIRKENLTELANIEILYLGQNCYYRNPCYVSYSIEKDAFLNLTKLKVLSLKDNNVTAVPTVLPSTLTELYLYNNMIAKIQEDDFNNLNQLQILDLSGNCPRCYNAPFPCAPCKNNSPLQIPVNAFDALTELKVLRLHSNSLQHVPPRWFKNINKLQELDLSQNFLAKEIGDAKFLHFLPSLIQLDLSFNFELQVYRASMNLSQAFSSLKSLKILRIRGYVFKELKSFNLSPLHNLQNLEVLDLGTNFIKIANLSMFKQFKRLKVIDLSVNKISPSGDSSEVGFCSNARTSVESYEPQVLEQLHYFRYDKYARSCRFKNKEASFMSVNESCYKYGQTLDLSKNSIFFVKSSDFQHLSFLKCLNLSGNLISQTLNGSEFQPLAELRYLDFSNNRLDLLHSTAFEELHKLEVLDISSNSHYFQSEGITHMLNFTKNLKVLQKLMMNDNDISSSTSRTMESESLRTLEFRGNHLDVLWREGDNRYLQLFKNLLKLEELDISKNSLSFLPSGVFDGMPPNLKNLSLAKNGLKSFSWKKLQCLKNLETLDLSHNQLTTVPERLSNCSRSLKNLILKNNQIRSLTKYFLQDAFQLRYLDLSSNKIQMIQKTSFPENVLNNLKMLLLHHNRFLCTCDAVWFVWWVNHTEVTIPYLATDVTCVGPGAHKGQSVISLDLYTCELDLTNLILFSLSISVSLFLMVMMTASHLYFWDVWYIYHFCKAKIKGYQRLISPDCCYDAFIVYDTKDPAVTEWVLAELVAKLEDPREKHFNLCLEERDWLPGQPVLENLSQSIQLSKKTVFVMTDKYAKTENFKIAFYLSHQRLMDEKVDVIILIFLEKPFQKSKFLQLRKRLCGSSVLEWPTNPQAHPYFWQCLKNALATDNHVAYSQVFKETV
Put plainly: TLR7 inhibition reporter assay (HEK-Blue cells, SEAP reporter, gardiquimod stimulation). Conditions: HEK-Blue cells overexpressing human TLR7, SEAP reporter, gardiquimod 7.5 μM. In outline:
as §1

In the case of `CC(C)c1c(-c2ccnc3[nH]ncc23)[nH]c2ccc(C3CCN(C(=O)Cc4c[nH]cn4)CC3)cc12` [Example 612, 2-(1H-imidazol-4-yl)-1-(4-(3-isopropyl-2-(1H-pyrazolo[3,4-b]pyridin-4-yl)-1H-indol-5-yl)piperidin-1-yl)ethan-1-one], the IC50 in test [1] was under 0.1 µM; in test [2], 1 to 50 µM; in test [3], under 0.1 µM.

Turning to `CC(C)c1c(-c2ccnc3[nH]ncc23)[nH]c2ccc(C3CCN(C(=O)CCC(=O)N(C)C)CC3)cc12` [Example 613, 4-(4-(3-isopropyl-2-(1H-pyrazolo[3,4-b]pyridin-4-yl)-1H-indol-5-yl)piperidin-1-yl)-N,N-dimethyl-4-oxobutanamide], the IC50 in test [1] was 0.1 to 1 µM; in test [2] it was over 50 µM; in test [3], 0.1 to 1 µM.

For `CC(C)c1c(-c2ccnc3[nH]ncc23)[nH]c2ccc(C3CCN(C(=O)CS(C)(=O)=O)CC3)cc12` [Example 614, 1-(4-(3-isopropyl-2-(1H-pyrazolo[3,4-b]pyridin-4-yl)-1H-indol-5-yl)piperidin-1-yl)-2-(methylsulfonyl)ethan-1-one], the IC50 is under 0.1 µM in test [1], over 50 µM in test [2] and under 0.1 µM in test [3].

As to `CC(C)c1c(-c2ccnc3[nH]ncc23)[nH]c2ccc(C3CCN(C(=O)c4cc[nH]n4)CC3)cc12` [Example 615, (4-(3-isopropyl-2-(1H-pyrazolo[3,4-b]pyridin-4-yl)-1H-indol-5-yl)piperidin-1-yl)(1H-pyrazol-3-yl)methanone], the concentration for half-maximal inhibition (IC50) is 0.1 to 1 µM in test [1], 1 to 50 µM in test [2] and 0.1 to 1 µM in test [3].

For the compound `Cc1cc(-c2[nH]c3ccc(C4CCN(S(=O)(=O)CCO)CC4)cc3c2C(C)C)cn2nnnc12` [Example 616, 2-((4-(3-isopropyl-2-(8-methyltetrazolo[1,5-a]pyridin-6-yl)-1H-indol-5-yl)piperidin-1-yl)sulfonyl)ethan-1-ol], the results for the IC50 in test [1], in test [2] and in test [3] were 0.1 to 1 µM, over 50 µM and under 0.1 µM, respectively.

Turning to `Cc1cc(-c2[nH]c3ccc(C4CCN(S(=O)(=O)CCN(C)C)CC4)cc3c2C(C)C)cn2nnnc12` [Example 617, 2-((4-(3-isopropyl-2-(8-methyltetrazolo[1,5-a]pyridin-6-yl)-1H-indol-5-yl)piperidin-1-yl)sulfonyl)-N,N-dimethylethan-1-amine], the IC50 in test [1] was under 0.1 µM; in test [2] it was 1 to 50 µM; in test [3] it was under 0.1 µM.

For `Cc1cc(-c2[nH]c3ccc(C4CCN(C(=O)CCN5CCCC5)CC4)cc3c2C(C)C)cn2nnnc12` [Example 618, 1-(4-(3-isopropyl-2-(8-methyltetrazolo[1,5-a]pyridin-6-yl)-1H-indol-5-yl)piperidin-1-yl)-3-(pyrrolidin-1-yl)propan-1-one], the IC50 in test [1] is under 0.1 µM; in test [2], 0.1 to 1 µM; in test [3] it was under 0.1 µM.

With `Cc1c(-c2[nH]c3ccc(C4CCN(C(=O)CCN5CCOCC5)CC4)cc3c2C(C)C)cn2nnnc2c1C` [Example 619, 1-(4-(2-(7,8-dimethyltetrazolo[1,5-a]pyridin-6-yl)-3-isopropyl-1H-indol-5-yl)piperidin-1-yl)-3-morpholinopropan-1-one], the IC50 in test [1] was under 0.1 µM; in test [2], 1 to 50 µM; in test [3], under 0.1 µM.

For `Cc1cc(-c2[nH]c3ccc(C4CCN(C(=O)CCN(C)C)CC4)cc3c2C(C)C)cn2nnnc12` [Example 620, 3-(dimethylamino)-1-(4-(3-isopropyl-2-(8-methyltetrazolo[1,5-a]pyridin-6-yl)-1H-indol-5-yl)piperidin-1-yl)propan-1-one], the IC50 was under 0.1 µM in test [1], 1 to 50 µM in test [2] and under 0.1 µM in test [3].

Consider `Cc1cc(-c2[nH]c3ccc(C4CCN(C(=O)CCN5CC(C)(C)OC(C)(C)C5)CC4)cc3c2C(C)C)cn2nnnc12` [Example 621, 1-(4-(3-isopropyl-2-(8-methyltetrazolo[1,5-a]pyridin-6-yl)-1H-indol-5-yl)piperidin-1-yl)-3-(2,2,6,6-tetramethylmorpholino)propan-1-one], for which the half-maximal inhibitory concentration (IC50) in test [1] was under 0.1 µM; in test [2], 1 to 50 µM; in test [3], under 0.1 µM.

In the case of `Cc1cc(-c2[nH]c3ccc(C4CCN(C(=O)CCN5C[C@H]6CC[C@@H](C5)O6)CC4)cc3c2C(C)C)cn2nnnc12` [Example 622, 3-((1R,5S)-8-oxa-3-azabicyclo[3.2.1]octan-3-yl)-1-(4-(3-isopropyl-2-(8-methyltetrazolo[1,5-a]pyridin-6-yl)-1H-indol-5-yl)piperidin-1-yl)propan-1-one], the IC50 was under 0.1 µM in test [1], 1 to 50 µM in test [2] and under 0.1 µM in test [3].

As for `Cc1cc(-c2[nH]c3ccc(C4CCN(C(=O)CCN(C)C5CC5)CC4)cc3c2C(C)C)cn2nnnc12` [Example 623, 3-(cyclopropyl(methyl)amino)-1-(4-(3-isopropyl-2-(8-methyltetrazolo[1,5-a]pyridin-6-yl)-1H-indol-5-yl)piperidin-1-yl)propan-1-one], the concentration for half-maximal inhibition (IC50) in test [1] was under 0.1 µM; in test [2] it was 1 to 50 µM; in test [3], under 0.1 µM.
